Data as given in ChEMBL document CHEMBL1148417, “Thiol-based SAHA analogues as potent histone deacetylase inhibitors” (Bioorg Med Chem Lett, 2004).

Biological target: Histone deacetylase
Type: protein assay
Description: In vitro inhibitory activity against human histone deacetylase (HDAC) using HeLa nuclear extract

Row | SMILES | IC50
1 | O=C(CCCCCCNCCS)Nc1ccccc1.O=C(O)C(F)(F)F | > 100 µM
2 | CSCCCCCCC(=O)Nc1ccccc1 | > 100 µM
